Assay results published in US4221794A, “Method of imparting immunomodulating and antiviral activity” (Newport Pharmaceuticals International, Inc., priority 1979, dated 1980).
Structures can show the parent of a compound that is named as a salt.

Experiments:
influenza virus [1] = test: Anti-influenza activity (overall); assay type: cell-based, several strains of A and B sub-types
[2] = system: (Russian) influenza virus; test: Inhibition of influenza virus replication, Russian; assay type: cell-based
mouse lymphocytes = test: Mitogen (Con A) induced mouse lymphocyte (spleen cell) proliferation; assay type: cell-based; conditions: for Maximum Percent Change, Mitogen Induced (Con A) Mouse Lymph. Prolif.: plus = immunostimulating, minus = immunoinhibiting, 0 = neither
Text: (§1) The following three assay procedures are used to evaluate the ability of the test substances to modulate the activity of several classes of cells in the immune system. In these systems it is possible to identify both immunopotentiating activity (evidence by an enhancement of the parameter examined) as well as immunosuppressant activity (evidenced by an inhibition of the parameter examined).
1. Mitogen-Induced Mouse Spleen Cell Assay
Mouse spleen cells contain a population of both B and T lymphocytes which can be stimulated by a number of foreign substances (e.g., plant mitogens such as Con A) to proliferate. This enhanced proliferation is an indication of enhanced cell mediated immunity. The method below describes the system used to evaluate test substances as immunopotentiators.
Concanavalin A (Calbiochem, La Jolla, California), Lot #210073, lyophilized in NaCl, was prepared first as a 1% solution and diluted as a 2×concentration for each dilution (0.5, 1.0, 2.5 μg/ml).
Six to eight week old male Balb/c and C3 H inbred mice were obtained from the following sources: Flow Research Animals, Inc., Dublin, Virginia; Charles River Breeding Laboratories, Wilmington, Massachusetts; Laboratory Supply Company, Indianapolis, Indiana; and Lionel Strong Foundation, San Diego, California.
Three to five mice were sacrificed by cervical dislocation and the spleens aseptically removed. Pooled spleens were minced and teased with sterile forceps; then strained through a double layer of nylon mesh. The cell suspension was washed once with 15 ml of RPMI 1640 supplemented with 5% fetal calf serum and antibiotics. Cells were cultured at a concentration of 10^6 cells/0.1 ml/well in micro-plates. Cultures were incubated in the presence or absence of mitogen in a humidified atmosphere containing 5% CO2 for 48 hours. The test compound was added to cultures at various concentrations concommitant with mitogen.
Proliferation was assayed by the degree of incorporation of 1.0 μCi of [^3 H] thymidine over an 18 hour incubation period. Cultures were harvested by a MASH unit (Otto Hiller Co., Madison, Wisconsin) and thymidine incorporation was assayed by liquid scintillation spectrometry. Cultures were performed in triplicate and data are expressed as means plus or minus the standard error of the experimental means. Drug stimulation indices over control values were also calculated and portrayed graphically.
(§2) Table 4 above presents the results of an evaluation of a number of these subject compounds as potentiators of the immune response. Three different test systems were used. The first involves a measure of the ability of the test compound to enhance the ability of mouse lymphocytes to proliferate in response to a plant mitogen (Con A). The second involves measuring the ability of the test compounds to enhance human lymphocyte proliferation in response to a second plant mitogen (PHA). The third system measures the ability of these test substances to enhance macrophage proliferation in response to a natural lymphokine (MMF, Macrophage Mitogenic Factor).

[3] = system: human peripheral blood lymphocytes; test: Mitogen (PHA) induced human lymphocyte proliferation; assay type: cell-based; conditions: plus = immunostimulating, minus = immunoinhibiting, 0 = neither
influenza virus [4] = test: microbe, parasite or virus in culture; assay type: cell-based, influenza virus Type A/USSR 90 (HeLa cell cultures)
L-1210 leukemic cells = test: Anti-leukemic activity, inhibition of L-1210 growth; assay type: cell-based, mouse; conditions: 96 hours
Experimental: Anti-Leukemic Activity (Inhibition of L-1210 Growth)
Leukemic cells isolated from mice bearing the L-1210 tumor are cultured in vitro and their growth can be measured by counting the number of cells in the culture over a period of time. The incorporation of a test substance into the media will prevent the growth of the leukemic cells, an indication of an effective anti-leukemic agent.
I50 (concentration of drug inhibiting growth of L-1210) by % for the tested compounds was as follows:
To Measure Inhibition of Leukemic Cell (L-1210) Growth
Check to see that there is adequate cell growth in the stock cultures. Use cells 48-72 hours after transfers are done.
Weigh out the drugs at 50 times the desired final concentration and made serial dilutions.
Make up the final medium using 500 mls McCoy's 5A medium, 15% fetal calf serum, 5 mls penicillin-streptomycin solution, and 5 mls antibiotic-antimycotic solution and let it stand at room temperature.
Using sterile technique, add 0.1 ml of the drug dilutions to each tube.
Add an appropriate quantity of cells to the prepared medium. After mixing, remove a 0.5 ml sample, place it in a vial containing […] of saline, and count it on the Coulter Counter. Multiply the count by 40 to compensate for the 40 fold dilution (0.5 ml into […] and record the inoculum.
Add 5 mls of cell suspension to each tube. Swirl the bottle every 4 tubes to insure a more uniform distribution of cells.
Tighten the caps and place in the CO2 incubator at 36°-38° for 96 hours.
After 96 hours remove the tubes from the incubator and count the contents of each on the Coulter Counter. Multiply all counts by 40 and average the four counts for each drug dilution. If the count is less than the inoculum, record 100% inhibition. If the count is greater than the average of the eight control counts, record 0% inhibition. For all other counts use the following formula: [formula] 100%-% servival=inhibition of growth due to treatment.

[5] = system: Influenza A Swine 1976 (Hlsw -N1); assay type: cell-based; conditions: listed as 15418
immune response = test: Immunomodulating activity (overall); assay type: cell-based
Text: as §1, §2

guinea pig macrophages = test: Lymphokine (MMF) induced guinea pig macrophage proliferation; assay type: cell-based; conditions: plus = immunostimulating, minus = immunoinhibiting, 0 = neither
Experimental: 3. The macrophage represents a subpopulation of white blood cells which is an important component of the immune system in control of both cellular and humoral immunity. The assay system described below evaluates the substances studied as potentiators of macrophage function.
Phytohemagglutinin (PHA) (HA-17) was purchased from Burroughs Wellcome. A preparation containing Macrophage Mitogen Factor (MMF) and Macrophage Activating Factor (MAF) was prepared from antigen-stimulated immune lymph node lymphocytes (guinea pig) as previously described by Hadden et al, Nature 257, 483-485 (1975). […] The active fraction was employed in both the proliferation and activation assays.
Ficoll-hypaque purified human peripheral blood lymphocytes were prepared and PHA-induced lymphocyte proliferation was assayed by the incorporation of tritiated thymidine as described in Hadden et al., Cell. Immunol. 20, 98-103 (1975). Each compound was analyzed in the presence of suboptimal, optimal and supraoptimal concentrations of PHA (0.001, 0.01, 0.1 units/ml respectively). Paraffin oil-induced guinea pig peritoneal macrophages were prepared and incubated as monolayer culture (>98% pure macrophages). Lymphokine (MMF)-induced proliferation was assayed by the incorporation of tritiated thymidine at 3 and 5 days of culture as described, Hadden et al, Nature 257, 483-485 (1975). Lymphokine (MAF)-induced macrophage activation to kill Listeria monocytogenes following 5 days of culture in the presence or absence of MAF was performed during a 6 hour period as described in Hadden and England, Immunopharmacology, pages 87-100 (Plenum Press, 1977). Phagocytosis was quantitated during a 20-minute exposure to Listeria monocytogenes by counting the number of macrophages containing bacteria and the number of bacteria per phagocytic cell on gram stained monolayers in Labtek chambers. Intracellular killing of bacteria was evaluated by counting the number of cells containing bacteria and the number of bacteria/cell 6 hours after the initial 20 minute exposure. Parallel experiments in which macrophages were lysed and intracellular bacteria were cultured confirm the validity of bacterial activity determined by this manner in this system. The drugs were employed in each of the three systems over serial log concentration range in triplicate in the presence and absence of mitogen or lymphokine. Each type of experiment was performed at least three times. Previous experiments indicate a parallelism of response to pharmacologic modulation in the proliferation and achivation assays.
as §2

[6] = 1.0-10 (unit not printed), listed as 15418

**Q.** How did the “anti-influenza activity (in words)” value (influenza virus [1]; compound by itself) turn out when `CCCCCC[C@H]([C@H](C)O)n1cnc2c(N)ncnc21` (relative stereo) [NPT 15426, ERYTHRO-9-(2-HYDROXY-3-NONYL)-ADENINE. HCl] was run?
**A.** significant anti-influenza activity

**Q.** And the “% Inhibition” value ([2]; 0.1-1.0 μg/ml)?
**A.** 20-30%

**Q.** What about the “% Inhibition” value ([2]; 1.0-10 μg/ml) of the same compound?
**A.** 30-50%

**Q.** What about the “% Inhibition” value ([2]; 10-100 μg/ml) of the same compound?
**A.** 50-70%

**Q.** What about the “% Inhibition” value ([2]; >100 μg/ml) of the same compound?
**A.** 50-70%

**Q.** What about the “% Stimulation, Mitogen Induced Murine Lymphocyte Proliferation” value (“% Stimulation” for short) (mouse lymphocytes; 01-1.0 μg/ml) of the same compound?
**A.** 0%

**Q.** And the “% Stimulation” value (mouse lymphocytes; 1.0-10 μg/ml)?
**A.** 0%

**Q.** And the “Maximum Percent Change, Mitogen Induced (Con A) Mouse Lymph. Prolif.” value (mouse lymphocytes; 1.0-10 (unit not given))?
**A.** -85%

**Q.** What about the “% Stimulation” value (mouse lymphocytes; 10-100 μg/ml) of the same compound?
**A.** 0%

**Q.** What about the “Maximum Percent Change, Mitogen Induced (Con A) Mouse Lymph. Prolif.” value (mouse lymphocytes; 10-100 (unit not given)) of the same compound?
**A.** -91%

**Q.** And the “Maximum Percent Change, Mitogen Induced (Con A) Mouse Lymph. Prolif.” value (mouse lymphocytes; .01-1.0 (unit not given))?
**A.** -50%

**Q.** What about the “Maximum Percent Change, Mitogen Induced (PHA) Human Lymph. Prolif.” value ([3]; 1.0-10 (unit not given)) of the same compound?
**A.** -41%

**Q.** What about the “Maximum Percent Change, Mitogen Induced (PHA) Human Lymph. Prolif.” value ([3]; .01-1.0 (unit not given)) of the same compound?
**A.** 6%

**Q.** And the inhibition at 10 µg/mL (influenza virus [4]; unidentified influenza virus, read-out: % Inhibition of Hemadsorption Foci, Test Compound Conc. <10 μg/ml)?
**A.** 50%

**Q.** What about the inhibition at 100 µg/mL (influenza virus [4]; unidentified influenza virus, read-out: % Inhibition of Hemadsorption Foci, Test Compound Conc. >100 μg/ml) of the same compound?
**A.** 100%

**Q.** `CCCCCCC(CO)n1cnc2c(=O)[nH]cnc21` (stereo not shown) [NPT 15418] was tested. Which “potentiation of anti-influenza activity by DIP.PAcBA salt” value (influenza virus [1]) did it give?
**A.** does potentiate the anti-influenza activity and Yes

**Q.** What about the “inhibit the replication of different strains of influenza virus (number of strains)” value (influenza virus [1]; concentrations ranging from 1-150 μg/ml) of the same compound?
**A.** at least 4 different strains

**Q.** And the “I50 (concentration of drug inhibiting growth of L-1210)” value (L-1210 leukemic cells)?
**A.** 70 micrograms/ml

**Q.** And the “% Inhibition” value [5]?
**A.** > 70%

**Q.** And the “% Stimulation” value (mouse lymphocytes; 01-1.0 μg/ml, listed as 15418)?
**A.** 20-30%

**Q.** And the “% Stimulation” value (mouse lymphocytes; 1.0-10 μg/ml, listed as 15418)?
**A.** > 50%

**Q.** What about the “Maximum Percent Change, Mitogen Induced (Con A) Mouse Lymph. Prolif.” value (mouse lymphocytes; [6]) of the same compound?
**A.** 73%

**Q.** And the “% Stimulation” value (mouse lymphocytes; 10-100 μg/ml, listed as 15418)?
**A.** 20-30%

**Q.** What about the “Maximum Percent Change, Mitogen Induced (Con A) Mouse Lymph. Prolif.” value (mouse lymphocytes; 10-100 (unit not printed), listed as 15418) of the same compound?
**A.** 26%

**Q.** And the “Maximum Percent Change, Mitogen Induced (Con A) Mouse Lymph. Prolif.” value (mouse lymphocytes; .01-1.0 (unit not printed), listed as 15418)?
**A.** 41%

**Q.** What about the “potentiation of the immune response (in words)” value (immune response) of the same compound?
**A.** potentiation of the immune response has been observed

**Q.** And the “Potentiation of immunopotentiation by DIP.PAcBA salt” value (immune response; salt compared with parent compound)?
**A.** Yes

**Q.** And the “% Inhibition of Hemadsorption Foci” value (influenza virus [4]; Test Compound Conc. <10 μg/ml)?
**A.** 16%

**Q.** And the “% Inhibition of Hemadsorption Foci” value (influenza virus [4]; Test Compound Conc. >100 μg/ml)?
**A.** 52%

**Q.** What about the “Maximum Percent Change, Lymphokine Induced (MMF) Guinea Pig Mac. Prolif.” value (guinea pig macrophages; [6]) of the same compound?
**A.** 80%

**Q.** And the “Maximum Percent Change, Lymphokine Induced (MMF) Guinea Pig Mac. Prolif.” value (guinea pig macrophages; .01-1.0 (unit not given))?
**A.** 12%
